Measured values published in the CheMixHub ionic liquid set.

Assay: xn = mol fraction of the nth substance listed

CCCC[n+]1ccn(C)c1.F[B-](F)(F)F + O
Settings	electrical conductivity [S/m]	viscosity [mPa·s]
288.15 K, 100 kPa, x1 = 5.584e-05	0.0319	–
288.15 K, 100.3 kPa, x1 = 0.0005439	–	1.148
288.15 K, 100.3 kPa, x1 = 0.0009901	–	1.163
288.15 K, 100.3 kPa, x1 = 0.003018	–	1.205
288.15 K, 100.3 kPa, x1 = 0.00501	–	1.247
288.15 K, 100.3 kPa, x1 = 0.006973	–	1.283
288.15 K, 100.3 kPa, x1 = 0.009052	–	1.332
288.15 K, 100.3 kPa, x1 = 0.01199	–	1.394
288.15 K, 100.3 kPa, x1 = 0.01499	–	1.46
288.15 K, 100.3 kPa, x1 = 0.017	–	1.506
293.15 K, 100 kPa, x1 = 0.0003603	–	1.03
293.15 K, 100 kPa, x1 = 0.0003729	–	1.03
293.15 K, 100 kPa, x1 = 0.0007203	–	1.062
293.15 K, 100 kPa, x1 = 0.0007257	–	1.062
293.15 K, 100 kPa, x1 = 0.00108	–	1.093
293.15 K, 100 kPa, x1 = 0.0011	–	1.093
293.15 K, 100.3 kPa, x1 = 0.0005439	–	1.012
293.15 K, 100.3 kPa, x1 = 0.0009901	–	1.024
293.15 K, 100.3 kPa, x1 = 0.003018	–	1.058
293.15 K, 100.3 kPa, x1 = 0.00501	–	1.095
293.15 K, 100.3 kPa, x1 = 0.006973	–	1.126
293.15 K, 100.3 kPa, x1 = 0.009052	–	1.168
293.15 K, 100.3 kPa, x1 = 0.01199	–	1.221
293.15 K, 100.3 kPa, x1 = 0.01499	–	1.277
293.15 K, 100.3 kPa, x1 = 0.017	–	1.315
293.15 K, 101 kPa, x2 = 0.03402	–	115.2
293.15 K, 101 kPa, x2 = 0.06153	–	102.2
293.15 K, 101 kPa, x2 = 0.1014	0.5	–
293.15 K, 101 kPa, x2 = 0.3977	–	26.7
298.15 K, 100 kPa, x1 = 3.988e-05	0.0281	–
298.15 K, 100 kPa, x1 = 0.0003603	–	0.917
298.15 K, 100 kPa, x1 = 0.0003729	–	0.917
298.15 K, 100 kPa, x1 = 0.0007203	–	0.951
298.15 K, 100 kPa, x1 = 0.0007257	–	0.951
298.15 K, 100 kPa, x1 = 0.00108	–	0.983
298.15 K, 100 kPa, x1 = 0.0011	–	0.983
298.15 K, 100 kPa, x2 = 0.9487	–	1.99
298.15 K, 100.3 kPa, x1 = 0.0005439	–	0.8998
298.15 K, 100.3 kPa, x1 = 0.0009901	–	0.9108
298.15 K, 100.3 kPa, x1 = 0.003018	–	0.9406
298.15 K, 100.3 kPa, x1 = 0.00501	–	0.9719
298.15 K, 100.3 kPa, x1 = 0.006973	–	0.9993
298.15 K, 100.3 kPa, x1 = 0.009052	–	1.036
298.15 K, 100.3 kPa, x1 = 0.01199	–	1.081
298.15 K, 100.3 kPa, x1 = 0.01499	–	1.128
298.15 K, 100.3 kPa, x1 = 0.017	–	1.162
298.15 K, 101 kPa, x2 = 0	0.194	116
298.15 K, 101 kPa, x2 = 0.06153	–	79.4
298.15 K, 101 kPa, x2 = 0.1036	0.274	81
298.15 K, 101 kPa, x2 = 0.1135	–	64.3
298.15 K, 101 kPa, x2 = 0.1877	0.374	59.5
298.15 K, 101 kPa, x2 = 0.2879	0.528	42.1
298.15 K, 101 kPa, x2 = 0.3977	–	22.3
298.15 K, 101 kPa, x2 = 0.4094	0.83	28.1
298.15 K, 101 kPa, x2 = 0.4954	1.21	20.8
298.15 K, 101 kPa, x2 = 0.5908	1.65	14.6
298.15 K, 101 kPa, x2 = 0.6979	2.42	9.5
298.15 K, 101 kPa, x2 = 0.7971	3.38	5.92
298.15 K, 101 kPa, x2 = 0.8493	4.79	–
298.15 K, 101 kPa, x2 = 0.8953	4.01	3.2
298.15 K, 101 kPa, x2 = 0.9496	4.83	–
303 K, 100 kPa, x1 = 0.6023	–	18.87
303.15 K, 100 kPa, x1 = 0.0003603	–	0.835
303.15 K, 100 kPa, x1 = 0.0003729	–	0.835
303.15 K, 100 kPa, x1 = 0.0007203	–	0.868
303.15 K, 100 kPa, x1 = 0.0007257	–	0.868
303.15 K, 100 kPa, x1 = 0.00108	–	0.904
303.15 K, 100 kPa, x1 = 0.0011	–	0.904
303.15 K, 100.3 kPa, x1 = 0.0005439	–	0.8079
303.15 K, 100.3 kPa, x1 = 0.0009901	–	0.8166
303.15 K, 100.3 kPa, x1 = 0.003018	–	0.8426
303.15 K, 100.3 kPa, x1 = 0.00501	–	0.87
303.15 K, 100.3 kPa, x1 = 0.006973	–	0.8927
303.15 K, 100.3 kPa, x1 = 0.009052	–	0.9275
303.15 K, 100.3 kPa, x1 = 0.01199	–	0.9648
303.15 K, 100.3 kPa, x1 = 0.01499	–	1.006
303.15 K, 100.3 kPa, x1 = 0.017	–	1.034
303.15 K, 101 kPa, x2 = 0	–	74
303.15 K, 101 kPa, x2 = 0.06153	–	63.1
303.15 K, 101 kPa, x2 = 0.9252	5.82	–
308 K, 100 kPa, x1 = 0.6023	–	16.04
308.15 K, 100 kPa, x1 = 3.988e-05	0.0349	–
308.15 K, 100 kPa, x1 = 5.584e-05	0.0437	–
308.15 K, 100 kPa, x1 = 7.98e-05	0.0658	–
308.15 K, 100 kPa, x1 = 0.0003603	–	0.751
308.15 K, 100 kPa, x1 = 0.0003729	–	0.751
308.15 K, 100 kPa, x1 = 0.0007203	–	0.789
308.15 K, 100 kPa, x1 = 0.0007257	–	0.789
308.15 K, 100 kPa, x1 = 0.00108	–	0.83
308.15 K, 100 kPa, x1 = 0.0011	–	0.83
308.15 K, 100.3 kPa, x1 = 0.0005439	–	0.7296
308.15 K, 100.3 kPa, x1 = 0.0009901	–	0.7358
308.15 K, 100.3 kPa, x1 = 0.00501	–	0.7841
308.15 K, 100.3 kPa, x1 = 0.006973	–	0.8048
308.15 K, 100.3 kPa, x1 = 0.009052	–	0.835
308.15 K, 100.3 kPa, x1 = 0.01199	–	0.8681
308.15 K, 100.3 kPa, x1 = 0.01499	–	0.9047
308.15 K, 100.3 kPa, x1 = 0.017	–	0.9282
308.15 K, 101 kPa, x2 = 0.1002	–	38.1
308.15 K, 101 kPa, x2 = 0.209	–	28.4
308.15 K, 101 kPa, x2 = 0.7002	4.24	–
313 K, 100 kPa, x1 = 0.6023	–	13.87
313.15 K, 100 kPa, x1 = 0.0003603	–	0.693
313.15 K, 100 kPa, x1 = 0.0003729	–	0.693
313.15 K, 100 kPa, x1 = 0.0007203	–	0.736
313.15 K, 100 kPa, x1 = 0.0007257	–	0.736
313.15 K, 100 kPa, x1 = 0.00108	–	0.779
313.15 K, 100 kPa, x1 = 0.0011	–	0.779
313.15 K, 100.3 kPa, x1 = 0.0005439	–	0.6614
313.15 K, 100.3 kPa, x1 = 0.0009901	–	0.6672
313.15 K, 100.3 kPa, x1 = 0.00501	–	0.7105
313.15 K, 100.3 kPa, x1 = 0.006973	–	0.7302
313.15 K, 100.3 kPa, x1 = 0.009052	–	0.7571
313.15 K, 100.3 kPa, x1 = 0.01199	–	0.7861
313.15 K, 100.3 kPa, x1 = 0.01499	–	0.8177
313.15 K, 100.3 kPa, x1 = 0.017	–	0.8403
313.15 K, 101 kPa, x2 = 0	–	46.5
313.15 K, 101 kPa, x2 = 0.1014	0.991	–
313.15 K, 101 kPa, x2 = 0.1135	–	35.01
313.15 K, 101 kPa, x2 = 0.5014	–	9
313.15 K, 101 kPa, x2 = 0.6004	–	7.4
313.15 K, 101 kPa, x2 = 0.8493	6.99	–
313.15 K, 101 kPa, x2 = 0.9744	5.57	–
318.15 K, 100 kPa, x1 = 0.0003603	–	0.638
318.15 K, 100 kPa, x1 = 0.0003729	–	0.638
318.15 K, 100 kPa, x1 = 0.0007203	–	0.681
318.15 K, 100 kPa, x1 = 0.0007257	–	0.681
318.15 K, 100 kPa, x1 = 0.00108	–	0.725
318.15 K, 100 kPa, x1 = 0.0011	–	0.725
318.15 K, 100.3 kPa, x1 = 0.0005439	–	0.6041
318.15 K, 100.3 kPa, x1 = 0.0009901	–	0.6099
318.15 K, 100.3 kPa, x1 = 0.003018	–	0.6311
318.15 K, 100.3 kPa, x1 = 0.00501	–	0.6489
318.15 K, 100.3 kPa, x1 = 0.006973	–	0.6654
318.15 K, 100.3 kPa, x1 = 0.009052	–	0.69
318.15 K, 100.3 kPa, x1 = 0.01199	–	0.7155
318.15 K, 100.3 kPa, x1 = 0.01499	–	0.7441
318.15 K, 100.3 kPa, x1 = 0.017	–	0.7642
318.15 K, 101 kPa, x2 = 0.3058	2	–
318.15 K, 101 kPa, x2 = 0.6004	–	6.4
323.15 K, 101 kPa, x2 = 0.06153	–	29.13
323.15 K, 101 kPa, x2 = 0.209	–	16.7
323.15 K, 101 kPa, x2 = 0.4001	–	8.4
323.15 K, 101 kPa, x2 = 0.8493	7.98	–
323.15 K, 101 kPa, x2 = 0.9496	8.04	–
323.15 K, 101 kPa, x2 = 0.9744	6.74	–
333.15 K, 101 kPa, x2 = 0	–	24.86
333.15 K, 101 kPa, x2 = 0.1135	–	18.67
343.15 K, 101 kPa, x2 = 0.2984	–	6.5
343.15 K, 101 kPa, x2 = 0.6004	–	3.75
343.15 K, 101 kPa, x2 = 0.7	–	2.73
343.15 K, 101 kPa, x2 = 0.8999	–	1.07
353.15 K, 101 kPa, x2 = 0.1002	–	8.6
353.15 K, 101 kPa, x2 = 0.3977	–	5.98
353.15 K, 101 kPa, x2 = 0.6004	–	3.19
363.15 K, 101 kPa, x2 = 0.03402	–	11
363.15 K, 101 kPa, x2 = 0.06153	–	10.4
363.15 K, 101 kPa, x2 = 0.2802	–	6.65
373.15 K, 101 kPa, x2 = 0	–	9.55
373.15 K, 101 kPa, x2 = 0.06153	–	8.6

electrical conductivity [S/m], 101 kPa, frequency 6e-05 MHz
Settings	293.2 K	298.2 K	303.2 K	308.2 K	313.2 K	318.2 K	323.2 K	333.2 K	343.2 K	353.2 K
x2 = 0.2	0.897	1.026	1.16	1.3	1.45	1.59	1.75	2.1	2.49	2.94
x2 = 0.4	1.401	1.613	1.832	2.04	2.27	2.53	2.78	3.36	3.87	4.56
x2 = 0.6	2.25	2.61	2.95	3.28	3.69	4.13	4.57	5.31	6.27	7.44
x2 = 0.8	3.53	4.1	4.67	5.28	5.9	6.55	7.22	8.54	9.89	11.5
